From patent publication US6803501B2 (Monsanto Technology, LLC, priority 2000, dated 2004)
Residue numbers refer to the chain shown, from its start. pKi: −log10 of the molar value.

Tests used:
[1] = molecular target: T1, Z. mays EPSPS variant glypR (Thr-Ile, Pro-Ser) (Zea mays, UniProt A0A1D6NVZ6, P168S/T164I); assay: kinetic characterization of EPSP synthase (Table 4); format: biochemical; conditions: read-out: apparent Ki for glyphosate; with respect to PEP, saturating S3P
T1 sequence (A0A1D6NVZ6 63-506 T164I/P168S limits assumed): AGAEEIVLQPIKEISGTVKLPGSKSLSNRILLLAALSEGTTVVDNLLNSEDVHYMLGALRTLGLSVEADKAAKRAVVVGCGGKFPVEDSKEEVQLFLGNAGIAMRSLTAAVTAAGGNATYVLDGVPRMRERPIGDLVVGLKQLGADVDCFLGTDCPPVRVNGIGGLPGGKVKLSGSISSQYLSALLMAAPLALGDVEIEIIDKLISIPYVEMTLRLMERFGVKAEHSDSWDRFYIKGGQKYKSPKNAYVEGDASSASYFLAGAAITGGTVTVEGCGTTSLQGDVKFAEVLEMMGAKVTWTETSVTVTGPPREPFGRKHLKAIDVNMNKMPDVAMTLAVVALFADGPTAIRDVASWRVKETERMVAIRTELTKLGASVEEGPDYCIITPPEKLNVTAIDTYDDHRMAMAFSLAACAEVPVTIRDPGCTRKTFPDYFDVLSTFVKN
Protocol: (§1) Final sample volumes are approximately 0.5 ml.

[2] = molecular target: T2, Z. mays glypS (wt) EPSPS (Zea mays, glyphosate sensitive, wild type) (Zea mays, UniProt A0A1D6NVZ6); assay: as above; format: biochemical
T2 sequence (A0A1D6NVZ6 63-506 limits assumed): T1 sequence (A0A1D6NVZ6 63-506 T164I/P168S limits assumed) with I102T, S106P
Protocol: as §1

[3] = molecular target: T3, E. indica glypS EPSPS (Eleusine indica, naturally occurring glyphosate sensitive, wild type) (Eleusine indica, UniProt Q95AK0); assay: as above; format: biochemical
T3 construct: plant extract or E. coli SR481 extract
T3 sequence (Q95AK0 1-445): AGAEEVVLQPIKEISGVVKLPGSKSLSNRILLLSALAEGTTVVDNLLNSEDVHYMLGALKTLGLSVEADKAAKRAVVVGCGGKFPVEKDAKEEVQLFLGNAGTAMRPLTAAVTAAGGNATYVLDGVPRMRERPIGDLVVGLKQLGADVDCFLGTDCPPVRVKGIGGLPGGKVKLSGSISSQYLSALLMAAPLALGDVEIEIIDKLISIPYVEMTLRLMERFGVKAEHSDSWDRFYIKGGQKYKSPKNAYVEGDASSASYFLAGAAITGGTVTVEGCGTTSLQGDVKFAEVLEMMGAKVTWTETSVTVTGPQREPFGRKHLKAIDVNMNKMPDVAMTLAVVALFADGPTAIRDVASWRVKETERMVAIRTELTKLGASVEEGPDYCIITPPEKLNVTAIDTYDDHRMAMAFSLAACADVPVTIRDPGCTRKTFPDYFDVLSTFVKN
Protocol: as §1

[4] = tested on: E. coli SR481 cells expressing E. indica EPSP synthase (tolerant vs sensitive biotype); assay: growth of transgenic E. coli aroA- cells expressing E. indica EPSPS in the presence of glyphosate (FIG. 3); format: cell-based; conditions: M9 minimal media, 0.0, 0.5, 1.5 or 5.0 mM glyphosate, 0-48 hours, vs sensitive biotype enzyme
Protocol: The EPSP synthase mature protein-coding regions isolated from the glyphosate tolerant and glyphosate sensitive E. indica biotypes, can be directly compared for their ability to confer tolerance to glyphosate in transgenic hosts.
These sequences are employed in RT-PCR reactions to generate expression cassettes suitable for cloning into pMON45337 cut with the restriction enzymes Nde1 and EcoR1. RT-PCR reactions are performed with total RNAs extracted from frozen crown samples using the RNeasy Plant Mini Kit (cat.#74904, Qiagen Inc., Valencia, Calif.) per manufacturer's instructions. Oligo dT-primed first-strand cDNAs are prepared from 5 μg samples of total RNA using the Superscript Pre-Amplification System (cat.#18089-011, Life Technologies, Rockville, Md.) per manufacturer's instructions. Two μl of first-strand cDNA are then used to generate E. indica EPSP synthase expression cassettes via polymerase chain reaction. The oligonucleotides are added in 50 μl RT-PCR reactions at a final concentration of 0.4 μM. PCR amplifications are then performed using the Expand High Fidelity PCR System (cat.#1 732 641, Roche Molecular Biochemicals, Indianapolis, Ind.) per manufacturer's instructions, using a thermal profile of 94° C. for 30 seconds, then 57° C. for 2 minutes, followed by 75° C. for 3 minutes, for a total of 35 cycles. […]

[5] = tested on: native EPSPS from E. coli (wild type); conditions: read-out: apparent Ki for glyphosate; cited from earlier work

## O=C(O)CNCP(=O)(O)O [glyphosate, N-phosphonomethylglycine]
[1]
  pKi: 4.22
[2]
  pKi: 6.70
[3]
  pKi: 7.30
[4]
  increase in tolerance to glyphosate due to EPSP synthase from tolerant E. indica biotype: approximately three-fold increase in tolerance to glyphosate
[5]
  pKi: 6.30
